Results: US20180333382A1, “PHARMACEUTICAL COMPOSITIONS COMPRISING DGLA AND USE OF SAME” (DS Biopharma Limited, priority 2017, published 2018)

Experiment: Phase one study part 2: multiple dose (28 days) plasma PK of free and total DGLA
Format: in vivo, human
Experimental: Multiple dose part two of the study comprised two cohorts (Cohorts five and six) of eight subjects each, who were administered multiple doses of study drug in the fasted state for 28 days. Subjects in Cohorts five and six received DS107G at 2000 or 4000 mg, respectively, or matching placebo once daily for 28 days. Cohort six was started after Cohort five's safety data were evaluated by the SMC. No interim analysis was planned. […]
In Part two of the study (Cohorts five and six), subjects were administered study drug (500-mg DS107G capsules or matching placebo capsules) once daily in the fasted state for 28 days. Subjects in Cohort five received study drug first and, if they tolerated the 2000-mg daily dose for the first 14 days, subjects in Cohort six were started on the 4000-mg daily dose for 28 days.
PK parameter was computed after correcting the dosed DGLA concentrations with baseline DGLA concentrations.

[1] = 2000 mg once daily, Day 1, 0 to 24 hours
[2] = 2000 mg once daily, Day 28, 0 to 24 hours
[3] = 2000 mg once daily, Day 28, 0 to 168 hours
[4] = 2000 mg once daily, Day 28: 0 to 24 hours
[5] = 4000 mg once daily, Day 1, 0 to 24 hours

CCCCC/C=C\C/C=C\C/C=C\CCCCCCC(=O)O [DS107G, Dihomo gamma linolenic acid]
free DGLA mean accumulation ratio (AR), AUC (2000 mg): ~3.3
free DGLA mean accumulation ratio (AR), Cmax (2000 mg): ~2.8
AUC0-24, mean, free DGLA, baseline-corrected plasma [1]: 4548.7 ng·h/mL
AUC0-24/Dose, mean, free DGLA, baseline-corrected plasma [1]: 2.27 h/kL
AUC0-24/Dose, mean, total DGLA, baseline-corrected plasma [1]: 149.09 h/kL
AUC0-inf, mean, free DGLA, baseline-corrected plasma [1]: 5955.6 ng·h/mL
AUC0-inf/Dose, mean, free DGLA, baseline-corrected plasma [1]: 2.98 h/kL
AUC0-inf/Dose, mean, total DGLA, baseline-corrected plasma [1]: 2080.61 h/kL
CL/F, mean, free DGLA, baseline-corrected plasma [1]: 0.5448 kL/h
Cmax, mean, free DGLA, baseline-corrected plasma [1]: 850.5 ng/mL
Cmax/Dose, mean, free DGLA, baseline-corrected plasma [1]: 0.425 kL⁻¹
Cmax/Dose, mean, total DGLA, baseline-corrected plasma [1]: 9.050 kL⁻¹
λz, mean, free DGLA, baseline-corrected plasma [1]: 0.2133 h⁻¹
λz, mean, total DGLA, baseline-corrected plasma [1]: 0.221 h⁻¹
AUC0-24, mean, free DGLA, baseline-corrected plasma [2]: 9248.1 ng·h/mL
AUC0-24/Dose, mean, free DGLA, baseline-corrected plasma [2]: 4.62 h/kL
AUC0-24/Dose, mean, total DGLA, baseline-corrected plasma [2]: 675.69 h/kL
AUC0-inf, mean, free DGLA, baseline-corrected plasma [2]: 10389.0 ng·h/mL
AUC0-inf/Dose, mean, free DGLA, baseline-corrected plasma [2]: 5.19 h/kL
AUC0-inf/Dose, mean, total DGLA, baseline-corrected plasma [2]: 2579.58 h/kL
CL/F, mean, free DGLA, baseline-corrected plasma [2]: 0.2002 kL/h
Cmax, mean, free DGLA, baseline-corrected plasma [2]: 1999.3 ng/mL
Cmax/Dose, mean, free DGLA, baseline-corrected plasma [2]: 1.000 kL⁻¹
Cmax/Dose, mean, total DGLA, baseline-corrected plasma [2]: 37.792 kL⁻¹
λz, mean, free DGLA, baseline-corrected plasma [2]: 0.1282 h⁻¹
λz, mean, total DGLA, baseline-corrected plasma [2]: 0.0199 h⁻¹
AUC0-24, mean, free DGLA, baseline-corrected plasma [3]: 9248.1 ng·h/mL
AUC0-24/Dose, mean, free DGLA, baseline-corrected plasma [3]: 4.62 h/kL
AUC0-24/Dose, mean, total DGLA, baseline-corrected plasma [3]: 675.69 h/kL
AUC0-inf, mean, free DGLA, baseline-corrected plasma [3]: 43024.8 ng·h/mL
AUC0-inf/Dose, mean, free DGLA, baseline-corrected plasma [3]: 21.51 h/kL
AUC0-inf/Dose, mean, total DGLA, baseline-corrected plasma [3]: 2513.91 h/kL
CL/F, mean, free DGLA, baseline-corrected plasma [3]: 0.0949 kL/h
Cmax, mean, free DGLA, baseline-corrected plasma [3]: 1999.3 ng/mL
Cmax/Dose, mean, free DGLA, baseline-corrected plasma [3]: 1.000 kL⁻¹
Cmax/Dose, mean, total DGLA, baseline-corrected plasma [3]: 37.792 kL⁻¹
λz, mean, free DGLA, baseline-corrected plasma [3]: 0.0250 h⁻¹
λz, mean, total DGLA, baseline-corrected plasma [3]: 0.0169 h⁻¹
% PTF (peak trough fluctuation), mean, free DGLA, steady-state baseline-corrected plasma [4]: 492.54%
% PTF (peak trough fluctuation), mean, total DGLA, steady-state baseline-corrected plasma [4]: 62.50%
AR(AUC) accumulation ratio, mean, free DGLA, steady-state baseline-corrected plasma [4]: 3.340
AR(AUC) accumulation ratio, mean, total DGLA, steady-state baseline-corrected plasma [4]: 7.991
AR(Cmax) accumulation ratio, mean, free DGLA, steady-state baseline-corrected plasma [4]: 2.796
AR(Cmax) accumulation ratio, mean, total DGLA, steady-state baseline-corrected plasma [4]: 5.156
CLss/F, mean, free DGLA, steady-state baseline-corrected plasma [4]: 0.2295 kL/h
CLss/F, mean, total DGLA, steady-state baseline-corrected plasma [4]: 0.0016 kL/h
Cavg, mean, free DGLA, steady-state baseline-corrected plasma [4]: 385.3 ng/mL
Cavg, mean, total DGLA, steady-state baseline-corrected plasma [4]: 56307.2 ng/mL
Cmin, mean, free DGLA, steady-state baseline-corrected plasma [4]: 100.8 ng/mL
Cmin, mean, total DGLA, steady-state baseline-corrected plasma [4]: 37933.3 ng/mL
Vzss/F, mean, free DGLA, steady-state baseline-corrected plasma [4]: 5.3096 kL
Vzss/F, mean, total DGLA, steady-state baseline-corrected plasma [4]: 0.0980 kL
tmin, median, free DGLA, steady-state baseline-corrected plasma [4]: 8.00 h
tmin, median, total DGLA, steady-state baseline-corrected plasma [4]: 1.50 h
free DGLA mean accumulation ratio (AR), AUC (4000 mg): ~1.6
free DGLA mean accumulation ratio (AR), Cmax (4000 mg): ~1.4
AUC0-24, mean, free DGLA, baseline-corrected plasma [5]: 11441.4 ng·h/mL
AUC0-24/Dose, mean, free DGLA, baseline-corrected plasma [5]: 2.86 h/kL
AUC0-24/Dose, mean, total DGLA, baseline-corrected plasma [5]: 114.05 h/kL
AUC0-inf, mean, free DGLA, baseline-corrected plasma [5]: 13900.3 ng·h/mL
AUC0-inf/Dose, mean, free DGLA, baseline-corrected plasma [5]: 3.48 h/kL
CL/F, mean, free DGLA, baseline-corrected plasma [5]: 0.3325 kL/h
Cmax, mean, free DGLA, baseline-corrected plasma [5]: 2641.5 ng/mL
Cmax/Dose, mean, free DGLA, baseline-corrected plasma [5]: 0.660 kL⁻¹
Cmax/Dose, mean, total DGLA, baseline-corrected plasma [5]: 6.967 kL⁻¹
λz, mean, free DGLA, baseline-corrected plasma [5]: 0.1504 h⁻¹
